# Experimental data from PubChem BioAssay AID328 (DTP/NCI, 2004).
# “And” between values parts separate entries of the source, which are not always exact repeats. Identical values can stand only once. Inconclusive results and toxic doses are left out.
# Tested on: BDF1 mice, P388 leukemia ip, median survival T/C
# Experiment: NCI In Vivo Anticancer Drug Screen. Data for tumor model P388 Leukemia (intraperitoneal) in B6D2F1 (BDF1) mice
# Details: endpoint: median survival time, higher = longer survival
# Outline: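 Compound-treated tumour-bearing mice were compared with vehicle-treated controls. Survival was recorded, and the value is the treated-group measurement divided by the control-group measurement (T/C).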
# [1] = dose: 100.0 mg/kg/injection, schedule: Q04DX003 (ip), vehicle: saline
# [2] = dose: 200.0 mg/kg/injection, schedule: Q04DX003 (ip), vehicle: saline
# [3] = dose: 400.0 mg/kg/injection, schedule: Q04DX003 (ip), vehicle: saline
# [4] = dose: 100.0 mg/kg/injection, schedule: Q01DX009 (ip), vehicle: saline with Tween-80
# [5] = dose: 200.0 mg/kg/injection, schedule: Q01DX009 (ip), vehicle: saline with Tween-80
# [6] = dose: 100.0 mg/kg/injection, schedule: Q04DX003 (ip), vehicle: saline with Tween-80
# [7] = dose: 200.0 mg/kg/injection, schedule: Q04DX003 (ip), vehicle: saline with Tween-80
# [8] = dose: 400.0 mg/kg/injection, schedule: Q04DX003 (ip), vehicle: saline with Tween-80
# [9] = dose: 200.0 mg/kg/injection, schedule: Q01DX009 (ip), vehicle: saline
# [10] = dose: 400.0 mg/kg/injection, schedule: Q01DX009 (ip), vehicle: saline
structure (smiles),measurement,setting,value
C=CCNC(=S)Nc1cc(Cl)ccc1C,T/C,"dose: 50.0 mg/kg/injection, schedule: Q04DX003 (ip), vehicle: Klucel (hydroxypropylcellulose) (HPC)",95 % of control
same,T/C,"dose: 100.0 mg/kg/injection, schedule: Q04DX003 (ip), vehicle: Klucel (hydroxypropylcellulose) (HPC)",100 % of control
same,T/C,"dose: 200.0 mg/kg/injection, schedule: Q04DX003 (ip), vehicle: Klucel (hydroxypropylcellulose) (HPC)",109 % of control
CCCCN(C)/N=N/c1[nH]ncc1C(=O)OCC,T/C,"dose: 100.0 mg/kg/injection, schedule: Q04DX003 (ip), vehicle: other",116 % of control
same,T/C,"dose: 200.0 mg/kg/injection, schedule: Q04DX003 (ip), vehicle: other",108 % of control
same,T/C,"dose: 400.0 mg/kg/injection, schedule: Q04DX003 (ip), vehicle: other",100 % of control
CNCc1cccs1,T/C,[1],106 % of control
same,T/C,[2],117 % of control
same,T/C,[3],100 % of control
NCc1c(Cl)c(Cl)c(Cl)c(CN)c1Cl,T/C,"dose: 50.0 mg/kg/injection, schedule: Q01DX009 (ip), vehicle: saline with Tween-80",100 % of control
same,T/C,[4],90 % of control
same,T/C,[5],86 % of control
c1ccc(-c2ncnc3c2Cc2ccccc2-3)cc1,T/C,[4],104 % of control
same,T/C,[6],100 % of control
same,T/C,[5],104 % of control
same,T/C,[7],100 % of control
same,T/C,"dose: 400.0 mg/kg/injection, schedule: Q01DX009 (ip), vehicle: saline with Tween-80",91 % of control
same,T/C,[8],109 % of control
N=C(N)c1ccc(C(=O)Oc2ccc([N+](=O)[O-])cc2)cc1,T/C,"dose: 50.0 mg/kg/injection, schedule: Q04DX003 (ip), vehicle: saline with Tween-80",109 % of control
same,T/C,[6],109 % of control
same,T/C,[7],109 % of control
Cn1cnc([N+](=O)[O-])c1Sc1nc(N)nc2c1ncn2C1CC(O)C(CO)O1 (stereo not given),T/C,"dose: 6.25 mg/kg/injection, schedule: Q01DX005 (ip), vehicle: Klucel (hydroxypropylcellulose) (HPC)",155 % of control
same,T/C,"dose: 6.25 mg/kg/injection, schedule: Q01DX009 (ip), vehicle: saline",161 % of control
same,T/C,"dose: 25.0 mg/kg/injection, schedule: Q01DX009 (ip), vehicle: saline",114 % of control and 95 % of control
same,T/C,"dose: 50.0 mg/kg/injection, schedule: Q01DX005 (ip), vehicle: Klucel (hydroxypropylcellulose) (HPC)",86 % of control
same,T/C,"dose: 50.0 mg/kg/injection, schedule: Q01DX009 (ip), vehicle: saline",107 % of control
same,T/C,"dose: 150.0 mg/kg/injection, schedule: Q01DX009 (ip), vehicle: saline",107 % of control
same,T/C,[9],109 % of control and 110 % of control
same,T/C,[2],118 % of control
same,T/C,[10],91 % of control and 116 % of control
same,T/C,[3],113 % of control
Cc1cccc(CSc2nc(N)nc3ncn(C4CC(O)C(CO)O4)c23)n1 (stereo not given),T/C,"dose: 100.0 mg/kg/injection, schedule: Q01DX009 (ip), vehicle: saline",103 % of control
same,T/C,[1],100 % of control
same,T/C,[9],97 % of control
same,T/C,[2],104 % of control
same,T/C,[10],103 % of control
same,T/C,[3],100 % of control
O=C(O)CC/C(=N\O)c1cccc([N+](=O)[O-])c1,T/C,[6],100 % of control
same,T/C,[7],100 % of control
same,T/C,[8],95 % of control
